The source of these data is patent US20130156701A1, “METHOD OF PREPARING ETHACRYNIC AMIDE DERIVATIVES AND APPLICATION THEREOF” (NATIONAL TSING HUA UNIVERSITY, priority 2011, published 2013).

One data set has as its system 293T cells. Briefly: trypan blue exclusion assay, cell viability after FBuEA treatment. Format: cell-based, human. As to conditions: 48 hr, read-out: IC50 (concentration required to decrease 50% cell viability). How it is done: (§1) Human lung cancer cell line A549, human erythroleukemia cell line (HEL) and human embryonic kidney 293T cell line were cultivated in the RPMI-1640 medium (GIBCO) supplemented with 10% fetal bovine serum, 100 U/mL penicillin, 0.1 mg/mL streptomycin and 2 mM L-glutamine (GIBCO) at 37° C. in 5% CO2 incubator. 293T was a non-tumorigenic cell line as a […] control in cell viability experiment.
(§2) To detect the cytotoxicity effects of FBuEA (compound of formula 10), A549 and HEL were treated with different concentration of FBuEA for 48 hr and compared with 293T. For the cytotoxicity study, trypan blue exclusion assay was performed to quantity the cell viability, 5×10^4 cells and the medium with different concentration of FBuEA (from 0 to 20 µM) were loaded in the 48-well plates for 48 hr. After 48 hr, cells mixed with trypan blue (GIBICO), just count the cells that have excluded the dye. Each count repeated three times and calculated the average of concentration. The cytotoxicity effects of EBuEA to A549, HEL and 293T cells were indicated by IC50 value (comparing with untreated cells, the concentration of EBuEA required to decrease 50% cell viability).

A further data set has as its system A549 cells. Described as above. To be noted: 48 hr, read-out: IC50 (concentration required to decrease 50% cell viability). Format: cell-based, human. As for the experimental part: as §1, §2
The next data set deals with HEL cells. The description is as above. Format: cell-based, human. To be noted: 48 hr, read-out: IC50 (concentration required to decrease 50% cell viability). How it is done: as §1, §2
Data set [1] can be described thus: PET imaging of the liver of the TAA-treated CCA rat. Format: in vivo. As to conditions: CCA rat receiving TAA for 18 weeks. How it is done: The rats were anesthetized using 1 L/min 2% isoflurane (100% oxygen). After the rats had been anesthetized, they were given ^18F-FBuEA (11 MBq) via the lateral tail vein. After the injection, the rats were fixed in the prone position on a carbon bed.
Dynamic imaging (0-120 min) single-frame scans were acquired with a small-animal PET camera (microPET R4; Concorde Microsystems Inc.). The region of interest (ROI) was disposed in the tumor region by hand, the image reconstructions of ROI were processed with ASIPro software (Concorde Microsystems INC.). Using microPET, the tumor volumes were determined by the intake of ^18F-FBuEA (% ID/g).
Being a promising imaging probe, [^18F]FBuEA should be capable of detecting a disease at its early stage. […] Then the CCA rat along with the normal rat was subsequently imaged with [^18F]FBuEA 5 days later. […] The same CCA rat after feeding for 23 weeks of TAA was imaged again with [^18F]FBuEA but the imaging time was shortened to 5-10 min for optimization test (FIG. 11(D) and (E)). Whereas the tumor lesion was still dark and the cold spot was similar to that of 18 week rat. From the above comparisons, the optimized imaging sampling times appeared to be 0-30 min.

The conditions of data set [2]: parent ethacrynic acid, comparison value; cited from earlier work.

Consider `C=C(CC)C(=O)c1ccc(OCC(=O)NCCCCF)c(Cl)c1Cl` [FBuEA, N-(4-fluorobutyl)ethacrynic amide], for which the IC50 with 293T cells came to 20 µM; in the data set on A549 cells, 14 µM; in the data set on HEL cells it was 5 µM.

`OC[C@H]1OC(O)[C@H]([18F])[C@@H](O)[C@@H]1O` (some centres unmarked) [[^18F]FDG, [^18F]fluorodeoxyglucose, reference compound]: the “PET signal at the tumor lesion” value in data set [1] is on record as “significant hot spot”.

For the compound `C=C(CC)C(=O)c1ccc(OCC(=O)O)c(Cl)c1Cl` [ethacrynic acid], the plasma half-life in data set [2] was 30 to 60 min.
